System: Plasmodium berghei
Assay: Luciferase/luciferin-expressing antifolate-resistant parasites were used to infect a culture of HepG2 cells that were pre-incubated with compounds. Infected hepatocytes emit light due to the luciferase reaction. Assay results are presented as the percent inhibition of light emission compared to control. […]
Format: functional
Details: sporozoite; for IC90: read-out: LUCIFERASE INFECTION ASSAY - IC90

COc1ccc(CNc2ncnc3ccccc23)cc1
IC50 (PBLUC_HILL_SLOPE 1.65, PBLUC_R_SQUARED 0.126, read-out: LUCIFERASE INFECTION ASSAY - IC50): 3.67 µM | IC90: > 10 µM

CCOC(=O)c1c(C)nn(-c2ccc(NC(=O)c3cccs3)cc2)c1C
IC50 (PBLUC_HILL_SLOPE 1.61, PBLUC_R_SQUARED 0.613, read-out: LUCIFERASE INFECTION ASSAY - IC50): 1.43 µM | IC90: 5.59 µM

Cc1ccccc1-n1c(C)cc(/C=C(\C#N)C(=O)NCC2CCCO2)c1C (stereo not drawn)
IC50 (PBLUC_HILL_SLOPE 1.57, PBLUC_R_SQUARED 0.725, read-out: LUCIFERASE INFECTION ASSAY - IC50): 1.55 µM | IC90: 6.25 µM

Cc1ccc2nc(-c3ccc(NC(=O)CN4C(=O)NC(C)(c5ccc(OC(F)F)cc5)C4=O)cc3)sc2c1 (stereo not drawn)
IC50 (PBLUC_HILL_SLOPE 1.6, PBLUC_R_SQUARED 0.077, read-out: LUCIFERASE INFECTION ASSAY - IC50): > 10 µM | IC90: > 10 µM

CS(=O)(=O)c1ccc2nc(NC(=O)c3cc(-c4ccccc4)nn3-c3ccccc3)sc2c1
IC50 (PBLUC_HILL_SLOPE 1.63, PBLUC_R_SQUARED 0.444, read-out: LUCIFERASE INFECTION ASSAY - IC50): 4.67 µM | IC90: > 10 µM

Cc1ccc(S(=O)(=O)Nc2ccc(Nc3nccn4c(-c5ccccc5Oc5ccccc5)cnc34)cc2)cc1
IC50 (PBLUC_HILL_SLOPE 1.64, PBLUC_R_SQUARED 0.733, read-out: LUCIFERASE INFECTION ASSAY - IC50): 1.42 µM | IC90: 5.41 µM

Cc1ccc(SCc2ccc(-c3nc4ccccc4s3)cc2)cc1
IC50 (PBLUC_HILL_SLOPE 1.56, PBLUC_R_SQUARED 0.316, read-out: LUCIFERASE INFECTION ASSAY - IC50): 4.39 µM | IC90: > 9.5 µM

O=S(=O)(c1cc(C(F)(F)F)cc(C(F)(F)F)c1)N1CCc2c([nH]c3ccccc23)C1C(F)(F)F (stereo not drawn)
IC50 (PBLUC_HILL_SLOPE 1.65, PBLUC_R_SQUARED 0.099, read-out: LUCIFERASE INFECTION ASSAY - IC50): 5.02 µM | IC90: > 6.39 µM

Cc1ccc(-n2c(C)cc(C(=O)COC(=O)c3cccn3C)c2C)cc1
IC50 (PBLUC_HILL_SLOPE 1.64, PBLUC_R_SQUARED 0.0485, read-out: LUCIFERASE INFECTION ASSAY - IC50): 5.54 µM | IC90: > 10 µM

CC(=O)NC12CC3CC(C1)CC(C(=O)Nc1ccc4c(c1)-c1ccccc1C4)(C3)C2
IC50 (PBLUC_HILL_SLOPE 1.58, PBLUC_R_SQUARED 0.82, read-out: LUCIFERASE INFECTION ASSAY - IC50): 1.34 µM | IC90: 5.37 µM

N#Cc1ccc(-c2cc(C3(CNc4cccc(OC(F)(F)F)c4)CC3)ccn2)cc1
IC50 (PBLUC_HILL_SLOPE 1.65, PBLUC_R_SQUARED 0.178, read-out: LUCIFERASE INFECTION ASSAY - IC50): > 10 µM | IC90: > 10 µM

O=C(CN(Cc1ccco1)S(=O)(=O)c1ccccc1F)Nc1ccc(SC(F)F)cc1
IC50 (PBLUC_HILL_SLOPE 1.6, PBLUC_R_SQUARED 0.718, read-out: LUCIFERASE INFECTION ASSAY - IC50): 3.47 µM | IC90: > 10 µM

Cc1c(S(=O)(=O)c2ccc(Cl)cc2)csc1C(=O)NCc1ccco1
IC50 (PBLUC_HILL_SLOPE 1.58, PBLUC_R_SQUARED 0.729, read-out: LUCIFERASE INFECTION ASSAY - IC50): 2.88 µM | IC90: > 8.34 µM

N=C(N)N/N=C\c1cccc2ccccc12
IC50 (PBLUC_HILL_SLOPE 1.61, PBLUC_R_SQUARED 0.436, read-out: LUCIFERASE INFECTION ASSAY - IC50): 6.92 µM | IC90: > 15.5 µM

CC(=O)c1cccc(-c2cnc3cnc(-c4cccc(C(N)=O)c4)cn23)c1
IC50 (PBLUC_HILL_SLOPE 1.58, PBLUC_R_SQUARED 0.572, read-out: LUCIFERASE INFECTION ASSAY - IC50): 3.69 µM | IC90: > 9.26 µM

C#CCNS(=O)(=O)c1ccc(C(=O)Nc2ccccc2O)cc1
IC50 (PBLUC_HILL_SLOPE 1.57, PBLUC_R_SQUARED 0.611, read-out: LUCIFERASE INFECTION ASSAY - IC50): 1.93 µM | IC90: 7.83 µM

CC(C)N1CCC(NC(=O)c2ccc(COc3ccc4ccccc4c3)o2)CC1
IC50 (PBLUC_HILL_SLOPE 1.64, PBLUC_R_SQUARED 0.625, read-out: LUCIFERASE INFECTION ASSAY - IC50): 2.37 µM | IC90: 9.06 µM

COC(=O)c1c(-c2ccccc2Cl)noc1/C=C/c1c[nH]c(=O)c2c(-c3ccccc3Cl)noc12
IC50 (PBLUC_HILL_SLOPE 1.63, PBLUC_R_SQUARED 0.42, read-out: LUCIFERASE INFECTION ASSAY - IC50): 3.61 µM | IC90: > 6.49 µM

COc1ccc(C(=O)Nc2ccc3nc(-c4cc(OC)c(OC)c(OC)c4)nn3c2)cc1OC
IC50 (PBLUC_HILL_SLOPE 1.61, PBLUC_R_SQUARED 0.589, read-out: LUCIFERASE INFECTION ASSAY - IC50): 1.17 µM | IC90: 4.55 µM

Cc1ccc(C)c(NC(=S)[C-](C(=O)c2ccc3c(c2)OCCO3)[n+]2ccccc2)c1
IC50 (PBLUC_HILL_SLOPE 1.61, PBLUC_R_SQUARED 0.831, read-out: LUCIFERASE INFECTION ASSAY - IC50): 5.38 µM | IC90: > 10 µM

CCNC(=O)c1nn(Cc2ccccc2)c2c1CC(NCC(C)C)CC2 (stereo not drawn)
IC50 (PBLUC_HILL_SLOPE 1.56, PBLUC_R_SQUARED 0.224, read-out: LUCIFERASE INFECTION ASSAY - IC50): 6.64 µM | IC90: > 9.31 µM

CC1CCN(CCOc2ccc(-c3n[nH]cc3-c3ccccc3)c(O)c2)CC1
IC50 (PBLUC_HILL_SLOPE 1.57, PBLUC_R_SQUARED 0.734, read-out: LUCIFERASE INFECTION ASSAY - IC50): > 8.74 µM | IC90: > 8.74 µM

O=C(Nc1ccccc1O)c1ccc(Cn2ccnc2)cc1
IC50 (PBLUC_HILL_SLOPE 1.6, PBLUC_R_SQUARED 0.598, read-out: LUCIFERASE INFECTION ASSAY - IC50): 1.57 µM | IC90: 6.19 µM

CN1/C(=C\C(=O)COC(=O)C2Cc3ccccc3CN2C(=O)c2ccccc2)C(C)(C)c2ccccc21 (stereo not drawn)
IC50 (PBLUC_HILL_SLOPE 1.63, PBLUC_R_SQUARED 0.576, read-out: LUCIFERASE INFECTION ASSAY - IC50): 3.35 µM | IC90: > 10 µM

O=C(Nc1ccccc1)ON=C1CC2CCCC(C1)N2Cc1ccccc1
IC50 (PBLUC_HILL_SLOPE 1.59, PBLUC_R_SQUARED 0.239, read-out: LUCIFERASE INFECTION ASSAY - IC50): > 9.08 µM | IC90: > 9.08 µM

Cc1nc(C(F)(F)F)nc(NCc2ccc(Cl)cc2)c1C
IC50 (PBLUC_HILL_SLOPE 1.61, PBLUC_R_SQUARED 0.626, read-out: LUCIFERASE INFECTION ASSAY - IC50): 3.42 µM | IC90: > 10.5 µM

CC(C)c1cc(C(=O)N2CCc3c(cc(-c4cccc(F)c4)c(=O)n3CCN3CCCCC3)C2)[nH]n1
IC50 (PBLUC_HILL_SLOPE 1.58, PBLUC_R_SQUARED 0.377, read-out: LUCIFERASE INFECTION ASSAY - IC50): 1.78 µM | IC90: > 6.71 µM

O=C(NC1CC1)c1ccc(CN(C2CC2)S(=O)(=O)/C=C/c2ccccc2)cc1
IC50 (PBLUC_HILL_SLOPE 1.61, PBLUC_R_SQUARED 0.829, read-out: LUCIFERASE INFECTION ASSAY - IC50): 1.03 µM | IC90: 4.03 µM

Clc1ccc2c(NCc3ccc(-n4cccn4)nc3)ncnc2c1
IC50 (PBLUC_HILL_SLOPE 1.57, PBLUC_R_SQUARED 0.509, read-out: LUCIFERASE INFECTION ASSAY - IC50): 3.37 µM | IC90: > 10 µM

CCOC(=O)c1c(C)[nH]c(C(=O)Nc2ccnn2Cc2ccc(Cl)cc2Cl)c1C
IC50 (PBLUC_HILL_SLOPE 1.6, PBLUC_R_SQUARED 0.586, read-out: LUCIFERASE INFECTION ASSAY - IC50): 3.97 µM | IC90: > 10 µM

COc1ncccc1-c1cc2c(cn1)nc(Nc1cccc(C(F)(F)F)c1)n2C
IC50 (PBLUC_HILL_SLOPE 1.56, PBLUC_R_SQUARED 0.782, read-out: LUCIFERASE INFECTION ASSAY - IC50): 2.89 µM | IC90: > 10 µM

CC(NCc1ccc(-c2ccccc2)s1)c1ccc(-n2ccnc2)cc1 (stereo not drawn)
IC50 (PBLUC_HILL_SLOPE 1.59, PBLUC_R_SQUARED 0.529, read-out: LUCIFERASE INFECTION ASSAY - IC50): 7.08 µM | IC90: > 10 µM

Cc1nc2ccc(NC(=O)c3ccc4[nH]c(C)c(C)c4c3)cc2s1
IC50 (PBLUC_HILL_SLOPE 1.58, PBLUC_R_SQUARED 0.399, read-out: LUCIFERASE INFECTION ASSAY - IC50): > 9.84 µM | IC90: > 9.84 µM

CNc1nc2cnc(-c3ccc(F)c(Cl)c3)cc2n1Cc1ccc(OC)c(OC)c1
IC50 (PBLUC_HILL_SLOPE 1.59, PBLUC_R_SQUARED 0.826, read-out: LUCIFERASE INFECTION ASSAY - IC50): 0.992 µM | IC90: 3.93 µM

O=C(NCc1ccc(Cn2ccnc2)cc1)c1csc(-c2cccs2)n1
IC50 (PBLUC_HILL_SLOPE 1.64, PBLUC_R_SQUARED 0.565, read-out: LUCIFERASE INFECTION ASSAY - IC50): 6.98 µM | IC90: > 10 µM

COc1ccc(N2C(=O)c3ccccc3C(C=NNC(=O)c3sc4ccccc4c3Cl)C2=O)cc1OC (stereo not drawn)
IC50 (PBLUC_HILL_SLOPE 1.6, PBLUC_R_SQUARED 0.564, read-out: LUCIFERASE INFECTION ASSAY - IC50): 3.85 µM | IC90: > 10 µM

COc1ccc(/C=C2\CCCC3C2=NN(C(=O)CSc2ccccn2)C3c2ccc(OC)cc2)cc1 (stereo not drawn)
IC50 (PBLUC_HILL_SLOPE 1.58, PBLUC_R_SQUARED 0.267, read-out: LUCIFERASE INFECTION ASSAY - IC50): 2.44 µM | IC90: 9.76 µM

Cc1ccc(S(=O)(=O)Nc2ccc(Nc3nccn4c(-c5ccc(OC(F)(F)F)cc5)cnc34)cc2)cc1
IC50 (PBLUC_HILL_SLOPE 1.58, PBLUC_R_SQUARED 0.687, read-out: LUCIFERASE INFECTION ASSAY - IC50): 0.867 µM | IC90: 3.49 µM

Cc1cc(C(=O)COC(=O)c2[nH]nc3ccccc23)c(C)n1Cc1cccs1
IC50 (PBLUC_HILL_SLOPE 1.56, PBLUC_R_SQUARED 0.399, read-out: LUCIFERASE INFECTION ASSAY - IC50): 1.56 µM | IC90: 6.39 µM

— ChEMBL document CHEMBL4483862, “Open-source discovery of chemical leads for next-generation chemoprotective antimalarials” (2018)
